Non-standard residues stand in square brackets, D forms with d. Residues, ends and D or L forms follow the SMILES beside them. Nva = CCC[C@H](N)C(=O)O
What was measured:
[1] = system: liver gene expression of CCl4 induced liver fibrosis mice; test: CCl4 mice: liver RNAseq gene expression analysis; format: in vivo, mouse; details: CCl4 + JT003 group
Method: (§1) Male mice liver fibrosis was induced by intraperitoneal injection of 20% CCl4 (Sigma, USA) diluted in corn oil (Aladdin, China) every 3 days for 6 weeks (n = 6; 5 ml kg^−1 body weight). Mice injected with equivalent volume of corn oil serves as control group (n = 6). Liver fibrosis mice treated with JT003 for 3 weeks were used to evaluated the pharmacological effects (n = 6; 500 μg kg^−1; daily intraperitoneal injection).
The positive area of all stained liver slices was quantified by ImageJ (https://imagej.nih.gov/ij/). All data in this study were shown as the mean ± SEM (Standard Error). Student’s two-tailed t test was used to compare the mean of two groups of samples. All statistical analyses were performed with GraphPad Prism software (https://www.graphpad.com/). Significance was considered when p < 0.05. In RNAseq gene expression analysis, false discovery rate <0.01, q value <0.001. The confidence level was 95%.

[2] = system: CCl4 induced liver fibrosis mice; test: CCl4 mice: apoptosis assay (TUNEL); format: in vivo, mouse; set-up: unit not given here; details: CCl4 + JT003 mice
Method: as §1
TUNEL assay was performed using 5 μm liver sections and the apoptotic cells were identified using a Cell Death Detection kit (Beyotime Biotechnology, Shanghai, China). And then the slices were counterstained with DAPI (Life science, ThermoFisher Scientific, USA). Six random fields from 6 slides per mice were examined, and the TUNEL-positive red area within the slides were counted by two individuals who were blinded to the treatment.

[3] = system: gene expression in PA induced HepG2 cells; test: Quantitative RT-PCR in PA induced HepG2 cells; format: cell-based, human; details: for IL-1a mRNA, relative expression, Supplementary Figure 11a / IL-6 mRNA, relative expression, Supplementary Figure 11a / IL-8 mRNA, relative expression, Supplementary Figure 11a / TNFa mRNA, relative expression, Supplementary Figure 11a: PA induced HepG2 cells, PA+JT003
Method: Hepatoma carcinoma cell line HepG2 and human hepatic activated stellate cell line LX2 used in this study were purchased from Type Culture Collection of the Chinese Academy of Sciences (Shanghai, China). Cells were cultured in Dulbecco’s modified Eagle’s medium (DMEM) with 10% fetal bovine serum (FBS), supplemented with 1% penicillin–streptomycin (ThermoFisher Scientific, USA) at 37 °C in a humidified atmosphere of 5% CO2. In PA (Sigma, USA) induced lipid accumulation cell model, HepG2 cells were seeded into a 6-well plate at 5E5 cells per well. 0.25 mM PA and/or 200 μM candidate peptides were co-incubated with cells for 24 h. Then Oil Red O staining was performed to evaluate the accumulation of lipid droplets. BSA (Sigma, USA) was used in this experiment as the negative control. For LX2 cells, 2E5 cells were seeded, then the adherent cells were exposed to 200 μM candidate peptides for another 48 h. Next, the cell protein was obtained and western blotting was performed. Candidate peptides were diluted in DMEM in a stock concentration of 1 M.
Liver total RNA was extracted by using Trizol reagent following the manufacture’s instruction (TransGen Biotech, China). The concentration of RNA was measured by Nanodrop 2000 (ThermoFisher Scientific, USA). cDNA was transcribed from 10ug total RNA with First Strand cDNA synthesis Super Mix (TransGen Biotech, China). The cDNA was diluted 1/50 and 1.0 uL were used as a template for qPCR. qPCR was performed with SYBR Green qPCR Super Mix (TransGen Biotech, China) in the Light Cycler 480 Real-Time PCR System (Roche, Swiss). Reference gene β-actin was used for data normalization. mRNA expression was analyzed with specific primers listed in Supplementary Table 2.

CCC[C@H](NC(=O)[C@@H]1CCCN1)C(=O)N[C@@H](CC(C)C)C(=O)N[C@@H](Cc1ccc(O)cc1)C(=O)N[C@@H](Cc1ccc(O)cc1)C(=O)N[C@@H](Cc1ccccc1)C(=O)N[C@@H](C)C(N)=O [JT003] (H-P[Nva]LYYFA-NH2)
Akr1c18 liver RNAseq expression ([1]; Figure 6c): 0.1038 | Bco1 liver RNAseq expression ([1]; Figure 6c): 0.5514 | Brca1 liver RNAseq expression ([1]; Figure 6c): -0.5686 | C3ar1 liver RNAseq expression ([1]; Figure 6c): -0.04576 | C5ar1 liver RNAseq expression ([1]; Figure 6c): -0.1308 | Ccl9 liver RNAseq expression ([1]; Figure 6c): 1.215 | Cxcl1 liver RNAseq expression ([1]; Figure 6c): 1.2887 | Fbn1 liver RNAseq expression ([1]; Figure 6c): -0.3979 | Fbn2 liver RNAseq expression ([1]; Figure 6c): -1.301 | Nupr1 liver RNAseq expression ([1]; Figure 6c): 0.5866 | Ptges liver RNAseq expression ([1]; Figure 6c): -0.4949 | Rdh11 liver RNAseq expression ([1]; Figure 6c): 0.8089 | Robo1 liver RNAseq expression ([1]; Figure 6c): -0.03152 | Xcr1 liver RNAseq expression ([1]; Figure 6c): -0.1135 | Alg8 liver RNAseq expression ([1]; Figure 7c): 0.5944 | Anxa5 liver RNAseq expression ([1]; Figure 7c): 1.645 | Atp2b2 liver RNAseq expression ([1]; Figure 7c): -0.4202 | Atp7b liver RNAseq expression ([1]; Figure 7c): 0.2148 | Ces3b liver RNAseq expression ([1]; Figure 7c): 2.066 | Creb3l2 liver RNAseq expression ([1]; Figure 7c): 0.1072 | Dhrs9 liver RNAseq expression ([1]; Figure 7c): -0.6021 | Elovl3 liver RNAseq expression ([1]; Figure 7c): 0.433 | Fitm1 liver RNAseq expression ([1]; Figure 7c): -0.3372 | Fmo2 liver RNAseq expression ([1]; Figure 7c): 0.8831 | Fndc5 liver RNAseq expression ([1]; Figure 7c): -0.7212 | Grik5 liver RNAseq expression ([1]; Figure 7c): 0.5888 | Mia2 liver RNAseq expression ([1]; Figure 7c): 0.7875 | Myo5a liver RNAseq expression ([1]; Figure 7c): -0.7959 | Nat8f5 liver RNAseq expression ([1]; Figure 7c): 0.6064 | Nsdhl liver RNAseq expression ([1]; Figure 7c): 0.8949 | Nucb2 liver RNAseq expression ([1]; Figure 7c): 0.4814 | Pdilt liver RNAseq expression ([1]; Figure 7c): 0.5899 | Pkmyt1 liver RNAseq expression ([1]; Figure 7c): 0.09691 | Prom1 liver RNAseq expression ([1]; Figure 7c): -0.03152 | Serpina1e liver RNAseq expression ([1]; Figure 7c): 3.324 | Slc37a2 liver RNAseq expression ([1]; Figure 7c): -0.4559 | Soat1 liver RNAseq expression ([1]; Figure 7c): -0.1079 | Sorl1 liver RNAseq expression ([1]; Figure 7c): -0.8539 | Srd5a2 liver RNAseq expression ([1]; Figure 7c): -0.09691 | Trim59 liver RNAseq expression ([1]; Figure 7c): -0.4949 | Zdhhc2 liver RNAseq expression ([1]; Figure 7c): -0.3468 | Adamts5 liver RNAseq expression ([1]; Figure 5d): -0.4318 | Adamtsl1 liver RNAseq expression ([1]; Figure 5d): -0.9208 | Anxa2 liver RNAseq expression ([1]; Figure 5d): 1.107 | Ckap4 liver RNAseq expression ([1]; Figure 5d): -0.05061 | Col1a1 liver RNAseq expression ([1]; Figure 5d): 0.8745 | Col1a2 liver RNAseq expression ([1]; Figure 5d): 0.934 | Col3a1 liver RNAseq expression ([1]; Figure 5d): 1.043 | Col6a3 liver RNAseq expression ([1]; Figure 5d): 0.1367 | Lgals3 liver RNAseq expression ([1]; Figure 5d): 0.941 | Lpl liver RNAseq expression ([1]; Figure 5d): 1.015 | Ltbp2 liver RNAseq expression ([1]; Figure 5d): -0.2757 | Mmp12 liver RNAseq expression ([1]; Figure 5d): -0.1805 | Nid1 liver RNAseq expression ([1]; Figure 5d): 0.5877 | Nid2 liver RNAseq expression ([1]; Figure 5d): 0.03342 | Npnt liver RNAseq expression ([1]; Figure 5d): -1.222 | Serpine2 liver RNAseq expression ([1]; Figure 5d): 0.143 | Slpi liver RNAseq expression ([1]; Figure 5d): 0.6998 | Tubb4b liver RNAseq expression ([1]; Figure 5d): 1.687 | TUNEL, Supplementary Figure 16 ([2]; replicate 1): 0.177 | TUNEL, Supplementary Figure 16 ([2]; replicate 2): 0.215 | TUNEL, Supplementary Figure 16 ([2]; replicate 3): 0.261 | TUNEL, Supplementary Figure 16 ([2]; replicate 4): 0.303 | TUNEL, Supplementary Figure 16 ([2]; replicate 5): 0.387 | TUNEL, Supplementary Figure 16 ([2]; replicate 6): 0.3 | TUNEL, Supplementary Figure 16 ([2]; replicate 7): 0.353 | TUNEL, Supplementary Figure 16 ([2]; replicate 8): 0.189 | TUNEL, Supplementary Figure 16 ([2]; replicate 9): 0.125 | TUNEL, Supplementary Figure 16 ([2]; replicate 10): 0.252 | lipogenesis (FAS, SREBP-1C, SREBP-2 and ACC1) and fatty acid β-oxidation (ACOX, LCAD and PDK4) genes ([3]; HepG2, 0.25 mM PA + 200 μM JT003, in words): meliorated notably | inflammatory factors and ER-mitochondrial axis dysfunction (mRNA) ([3]; PA induced HepG2, 200 μM JT003, in words): meliorated notably | IL-1a mRNA, relative expression, Supplementary Figure 11a ([3]; replicate 1): 1.056 | IL-6 mRNA, relative expression, Supplementary Figure 11a ([3]; replicate 1): 0.3197 | IL-8 mRNA, relative expression, Supplementary Figure 11a ([3]; replicate 1): 0.8479 | TNFa mRNA, relative expression, Supplementary Figure 11a ([3]; replicate 1): 0.6008 | IL-1a mRNA, relative expression, Supplementary Figure 11a ([3]; replicate 2): 0.8256 | IL-6 mRNA, relative expression, Supplementary Figure 11a ([3]; replicate 2): 0.3197 | IL-8 mRNA, relative expression, Supplementary Figure 11a ([3]; replicate 2): 0.8134 | TNFa mRNA, relative expression, Supplementary Figure 11a ([3]; replicate 2): 0.8039 | IL-1a mRNA, relative expression, Supplementary Figure 11a ([3]; replicate 3): 0.9853 | IL-6 mRNA, relative expression, Supplementary Figure 11a ([3]; replicate 3): 0.4368 | IL-8 mRNA, relative expression, Supplementary Figure 11a ([3]; replicate 3): 0.8277 | TNFa mRNA, relative expression, Supplementary Figure 11a ([3]; replicate 3): 0.7928 | IL-1a mRNA, relative expression, Supplementary Figure 11a ([3]; replicate 4): 0.9145 | IL-6 mRNA, relative expression, Supplementary Figure 11a ([3]; replicate 4): 0.3522 | IL-8 mRNA, relative expression, Supplementary Figure 11a ([3]; replicate 4): 0.8368 | TNFa mRNA, relative expression, Supplementary Figure 11a ([3]; replicate 4): 0.7583

Source: publication PMC7669869, “AdipoR1/AdipoR2 dual agonist recovers nonalcoholic steatohepatitis and related fibrosis via endoplasmic reticulum-mitochondria axis” (Nature Communications, 2020)
